From paper PMC7497692 (Investigational New Drugs, 2020)

Experiments:
[1] = Metabolite profiling and identification in plasma, urine and feces (part A); format: in vivo, human healthy male volunteers; details: male, human, in vivo; for half-life: apparent t½ of metabolite in plasma; for tmax: tmax of metabolite in plasma
Protocol: Participants were hospitalized from day 1 to day 16 of the study, and further assessed on days 19, 22, and 25 (trial end). […] Pre-dose feces and urine samples were collected on day 1 and day 2, respectively. Urine was collected at 4- to 12-h intervals on day 1 and every 24 h thereafter up to day 16. Feces were collected every 24 h up to day 16. Provision was made to collect further samples up to day 39 if >1% of the administered dose was detectable in the total (urine and feces) excreta per day on two consecutive measurements.
Metabolite profiling and structure elucidation in plasma, urine, and feces were performed at the Institute of Drug Metabolism and Pharmacokinetics, Merck KGaA, Grafing, Germany, using a radiometric UPLC method coupled to a high-resolution MS. For urine and feces, metabolites were identified in a single pooled sample per matrix and subject (urine pool of 4–120 h and feces pool of 0–192 h), that covered at least 90% of the total radioactivity of the respective matrix excreted. Intervals with low radioactivity were not used for the generation of the pooled samples to avoid dilution, and to increase the signal-to-noise ratio of the respective chromatograms.
The metabolite structure elucidation was performed using the linear trap quadrupole Orbitrap XL hybrid Fourier transform (FT) MS (Thermo Scientific, Dreieich, Germany) coupled to a Waters Acquity UPLC system. Full-scan FT spectra were acquired for measurement of the masses of molecular ions of parent and metabolites. MS^2 fragmentation spectra were acquired after high-energy collisional dissociation of the appropriate molecular ions. Allocation and confirmation of the proposed metabolites to the radioactive peaks were performed using an API4000 QTrap (AB Sciex, Darmstadt, Germany) MS with simultaneous splitting using a fraction collection system (CTC HTS PAL Fraction Collector, Axel Semrau, Sprockhövel, Germany), and offline radioactive measurement using a Topcount NXT® microplate scintillation counter (PerkinElmer, Rodgau, Germany).
The maximum plasma concentration (Cmax) and time to reach maximum concentration (tmax) were derived directly from the plasma concentration–time data. Lag time (tlag) was the time prior to the first measurable (non-zero) concentration. The area under the plasma concentration–time curve from 0 to t (last measurable concentration; AUC0–t) was calculated using a mixed log–linear trapezoidal method. Area under the plasma concentration–time curve until the last sampling time (AUCall), which corresponds to AUC0–240 h within the observation period, was used for metabolite calculations. Amounts excreted in urine, feces, and total (urine + feces) were calculated as the sum of amounts (concentration multiplied by volume) for each collection from time 0 to time t. The terminal rate constant (λz) was used to estimate the terminal half-life (t½) (ln 2/λz), and the area under the concentration–time curve from time 0 to infinity (AUC0–∞). Total body clearance (CL) and apparent body clearance (CL/f) were determined by dose/AUC0–∞, and total volume of distribution (Vz) and apparent volume of distribution (Vz/f) were calculated by dose/(AUC0–∞*λz) after IV and oral administration, respectively. Volume of distribution of the central compartment (Vc) was derived by dividing the dose by the initial drug plasma concentration after IV administration. Absolute bioavailability was calculated as F = (AUCoral/doseoral)/(AUCIV/doseIV) × 100. The ratios (%) AUCtepotinib or metabolite/AUCtotal radioactivity were calculated as a percentage of the molar AUCs.

[2] = Protein binding and blood cell affinity of M506; format: in vitro ADME

Which results are given for `CN1CCC(COc2cnc(-c3cccc(Cn4nc(-c5cccc(C#N)c5)ccc4=O)c3)nc2)CC1=O` (stereo not shown) [M506]?
half-life ([1]; median): 92 h; half-life ([1]; range): 66 to 145 h; % of AUCall of total 14C-radioactivity in plasma ([1]; po): 41%; tmax ([1]; po, median): 24 h; tmax ([1]; po, range): 24 to 60 h; affinity for blood cells [2]: low affinity for blood cells; protein binding [2]: highly protein-bound
